This test relates to influenza virus genome replication and transcription in yeast cells. Format: cell-based.

Consider one molecule from patent US20100304375A1, “Influenza Virus Genome Replication and Transcription System in Yeast Cells” (UNIVERSITY OF TSUKUBA, priority 2007, published 2010).

Each structure is given as a SMILES string.

For `C[C@@H]1C[C@@H]([C@H](O)CC2CC(=O)NC(=O)C2)C(=O)[C@@H](C)C1` [cycloheximide], the “synthesis level of viral RNAs” value is on record as “markedly reduced”.
